From patent US20240390464A1, “Treatment of Adults With Overweight or Obesity With or Without Weight-Related Comorbidities” (Carmot Therapeutics Inc., priority 2023, published 2024)
Numbered stars: 1 amine (or outer) side, 2 acyl side, 3 side chain; on linkers, the order of the positions; unused ones are H or OH. Square brackets hold non-standard residues; d marks the D form. Side chains are listed from the residue outwards. Peptide text beside a SMILES is read from it. * marks the point of attachment. Isobutyryl(2-(3-CN-5-F-Ph)) = CC(C)(C(=O)*)c1cc(F)cc(C#N)c1; C20 diacid = O=C(O)CCCCCCCCCCCCCCCCCCC(=O)*; γGlu = O=C(O)[C@H](CCC(=O)[*:2])N[*:1]; AEEA = NCCOCCOCC(=O)O; Aib = CC(C)(N)C(=O)O; βAla = NCCC(=O)O

Experiment: chronic toxicology, repeat dosing 39 weeks
Assay type: in vivo
Conditions: monkeys
Excerpt: Thus, CT-388 can be a potent drug that induces significant weight loss and helps achieve optimal glycemic control, with acceptable tolerability, in overweight or obese adults with or without T2DM or other weight-related comorbidities. CT-388 can potentially be used as a non-invasive alternative to bariatric surgery for weight management.

SMILES: CC[C@H](C)[C@H](NC(=O)[C@H](CC(C)C)NC(=O)[C@H](Cc1c[nH]c2ccccc12)NC(=O)[C@H](CCC(N)=O)NC(=O)[C@@H](NC(=O)[C@H](Cc1ccccc1)NC(=O)[C@H](C)NC(=O)[C@H](CCCCNC(=O)COCCOCCNC(=O)COCCOCCNC(=O)CC[C@H](NC(=O)CCCCCCCCCCCCCCCCCCC(=O)O)C(=O)O)NC(=O)[C@H](CCC(N)=O)NC(=O)[C@H](C)NC(=O)[C@@H](NC(=O)[C@H](CCCCN)NC(=O)[C@H](CC(=O)O)NC(=O)[C@H](CC(C)C)NC(=O)C(C)(C)NC(=O)[C@@H](NC(=O)[C@H](CO)NC(=O)[C@H](Cc1ccc(O)cc1)NC(=O)[C@H](CC(=O)O)NC(=O)[C@H](CO)NC(=O)[C@@H](NC(=O)[C@H](Cc1ccccc1)NC(=O)[C@@H](NC(=O)CNC(=O)[C@H](CCC(=O)O)NC(=O)CCNC(=O)C(C)(C)c1cc(F)cc(C#N)c1)[C@@H](C)O)[C@@H](C)O)[C@@H](C)CC)[C@@H](C)CC)C(C)C)C(=O)N[C@@H](C)C(=O)NCC(=O)NCC(=O)N1CCC[C@H]1C(=O)N[C@@H](CO)C(=O)N[C@@H](CO)C(=O)NCC(=O)N[C@@H](C)C(=O)N1CCC[C@H]1C(=O)N1CCC[C@H]1C(=O)N1CCC[C@H]1C(=O)N[C@@H](CO)C(N)=O [CT-388] ({Isobutyryl(2-(3-CN-5-F-Ph))-βAla}-EGTFTSDYSI[Aib]LDKIAQK([AEEA-AEEA-γGlu-C20 diacid])AFVQWLIAGGPSSGAPPPS-NH2)
- tolerated dosing exceeds the pharmacologically active dose (39-weeks): 100 fold
- tolerability, chronic toxicology (repeat dosing over 39-weeks): well tolerated
